# US20070135488A1, “Amlodipine nicotinate and process for the preparation thereof” (priority 2002, published 2007)
# Where two headings read alike, the source gives them in different places.
# Tests used:
# Hygroscopicity test = format: physicochemical; details: 60% relative humidity, 50° C., 14 days
# Procedure: 1.0 g of amlodipine besylate prepared in accordance with U.S. Pat. No. 4,879,303 and 1.0 g of amlodipine nicotinate dihydrate obtained in Example 1 were exposed to 60% relative humidity at 50° C. for 14 days.
# [1] = Chemical stability (stability test under stress condition); format: physicochemical; details: tablets in sealed vials, 50° C., 60% relative humidity, three weeks, TLC
# Procedure: In order to assess the chemical stability, amlodipine besylate and amlodipine nicotinate were blended in a powder vehicle and formed into tablets. The vehicle for tablets comprised microcrystalline cellulose and anhydrous dibasic calcium phosphate in 50:50. The tablets were then stored in sealed vials at 50° C. and at 60% relative humidity for three weeks.
# FIGS. 4A and 4B show H-NMR charts of amlodipine besylate before and after the stability test, respectively, and FIGS. 5A and 5B show H-NMR charts of amlodipine nicotinate before and after the stability test, respectively. The peaks on NMR of amlodipine besylate are as follows: […]
# Photostability = format: physicochemical; details: 25-30° C., 2 weeks, incandescent lamp (220V, 100 W) 30 cm above
# Procedure: 1.0 g of amlodipine besylate prepared in accordance with U.S. Pat. No. 4,879,303 and 1.0 g of amlodipine nicotinate dihydrate obtained in Example 1, which were placed in glass schales (100×20 mm), were exposed at 25-30° C. for 2 weeks under an incandescent lamp (220V, 100 W) that was placed at 30 cm above the samples. […] FIGS. 6A and 6B show H-NMR charts of amlodipine besylate before and after the photostability test, respectively. The peaks on NMR of amlodipine besylate are as follows: […]
# [2] = tested on: spontaneously hypertensive rats (SHRs); assay: In vivo anti-hypertensive activity, systolic blood pressure by tail-cuff method; parameters: species or system rat; details: SHR; for ED20 (amount necessary for 20% decrease in the blood pressure) / Intensity (reverse ratio of ED20 values relative to amlodipine besylate) / Maximal anti-hypertensive effect (change of systolic blood pressure) / Intensity (maximal effect of amlodipine nicotinate to maximal effect of amlodipine besylate): oral; for Maximal anti-hypertensive effect (change of systolic blood pressure): mean % ± S.E.M.
# Procedure: Cardiovascular effects, i.e., in vivo anti-hypertensive activities, were measured for amlodipine besylate prepared in accordance with U.S. Pat. No. 4,879,303 and amlodipine nicotinate prepared in Example 1, using spontaneously hypertensive rats (SHRs), by Korea Research Institute of Chemical Technology (Screening Center, #100, Jang-dong, Yuseong-gu, Daejeon).
# Male SHRs (Charles Rever Co., Japan) aged 13-14 weeks were used. Before evaluation, the SHRs were accustomed in a clean breeding chamber under conditions of a temperature of 22.5±1° C., a relative humidity of 55±5% and a lighting time of 12 hour intervals.
# The SHRs having a systolic blood pressure over 170 mmHg were divided into 7 groups, i.e., Test Groups 1 to 3 (for amlodipine besylate), Test Groups 4 to 6 (for amlodipine nicotinate) and a Control Group. Each Test Group and Control Group consisted of 6-8 SHRs (n=6-8).
# The test compounds were dissolved in distilled water to prepare test solutions immediately prior to administration. The test solutions of amlodipine besylate and amlodipine nicotinate were prepared by dissolving 1, 3, and 10 mg/kg in distilled water (0.5 ml/100 g rat), respectively, and then administered orally to each Test Group. The vehicle (distilled water) was administered to Control Group.
# The systolic blood pressure was measured with Multichannel 8000 (TSE Co., Germany), using a tail-cuff method. That is, the systolic blood pressures of a tail artery of each rat were measured before the administration of the test solutions and after 2, 4, 6, 8, 10, and 24 hours from the administration thereof. In order to facilitate the measurement of blood pressures, the test animals of each Group underwent warming at 37° C. for about 10 minutes before the measurements.
# The results of the foregoing test were expressed by a mean percentage and standard error (mean %±S.E.M.). Statistical analysis of the test results were conducted by an unpaired t-test and ANOVA (one-way analysis of variance) with Sigma Stat program (Jandel Co., USA). The secondary evaluations were conducted by a Dunnett's multiple comparison test.
# [3] = Solubility measurement (water solubility and pH at saturation); format: physicochemical; details: distilled water, room temperature; for solubility: ultrasonic waves, maximal solubilized amount
# Procedure: Water solubilities were measured for amlodipine besylate prepared in accordance with U.S. Pat. No. 4,879,303 and amlodipine nicotinate obtained in Example 1. By using 50 ml of distilled water and ultrasonic waves, maximal solubilized amounts were measured at a room temperature and pHs at saturation were measured using Fischer Scientific Accument (PH meter 15).
# [4] = Processability test (stickiness to tablet punch); format: physicochemical; details: amount adhering to tablet punch; for Stickiness: Amlodipine(μg)/cm^2 (tablet): average from slope over runs of 50-300 tablets
# Procedure: Using a conventional tablet making machinery, fifty tablets containing calcium sulphate dihydrate, microcrystalline cellulose and amlodipine nicotinate dihydrate (47.5:47.5:5) were produced. The material adhering to the tablet punch was then extracted using methanol and the amount was measured spectrometrically. This procedure was then repeated for runs of 100, 150, […], 250 and 300 tablets. After each run the amount of material adhering to the tablet punch was measured in the same process as above. The values were plotted and an average value was calculated from the slope of the line produced. The same procedure was then repeated for amlodipine besylate. The amount of amlodipine measured as adhering to the tablet punch is shown in Table 2 for amlodipine nicotinate dihydrate with relative to amlodipine besylate.
# [5] = 1 mg/kg, listed as Nicotinate salt, dihydrate
# [6] = listed as amlodipine nicotinate, dihydrate
smiles,measurement,setting,value
"CCOC(=O)C1=C(COCCN)NC(C)=C(C(=O)OC)C1c1ccccc1Cl (centres unmarked) [Amlodipine besylate, amlodipine besylate, reference compound]",hygroscopicity (state after exposure),Hygroscopicity test,remained anhydrous
same,breakdown products after stability test,[1],breakdown products
same,color change after photostability test,Photostability,discolored to yellow
same,ED20 (amount necessary for 20% decrease in the blood pressure),[2],2.48 ± 0.46 mg/kg
same,Intensity (reverse ratio of ED20 values relative to amlodipine besylate),[2],1.00
same,Maximal anti-hypertensive effect (change of systolic blood pressure),"[2]; 1 mg/kg, listed as Besylate salt",−7.0 ± 1.66%
same,Maximal anti-hypertensive effect (change of systolic blood pressure),"[2]; 3 mg/kg, listed as Besylate salt",−25.0 ± 1.98%
same,Maximal anti-hypertensive effect (change of systolic blood pressure),"[2]; 10 mg/kg, listed as Besylate salt",−38.7 ± 2.18%
same,effect on blood pressure,"[2]; oral, 1, 3 and 10 mg/kg",dose-dependently reduced blood pressures
same,ED20 (amount necessary for 20% decrease in the blood pressure),[2]; listed as amlodipine besylate,2.48 ± 0.46 mg/kg
same,pH at saturation,[3],6.6
same,solubility,"[3]; water, thermodynamic from solid, read-out: Solubility",4600 µg/mL
same,Stickiness relative to besylate,[4],100.0%
same,Stickiness: Amlodipine(μg)/cm^2 (tablet),[4],1.20 μg/cm^2 (tablet)
"CCOC(=O)C1=C(COCCN)NC(C)=C(C(=O)OC)C1c1ccccc1Cl (centres unmarked) [Amlodipine nicotinate, amlodipine nicotinate dihydrate]",hygroscopicity (state after exposure),Hygroscopicity test; dihydrate,remained intact
same,breakdown products after stability test,[1]; dihydrate,no breakdown product
same,color change after photostability test,Photostability; dihydrate,no color change
same,Maximal anti-hypertensive effect (change of systolic blood pressure),[2]; [5],−10.20 ± 2.71%
same,Intensity (maximal effect of amlodipine nicotinate to maximal effect of amlodipine besylate),"[2]; 1 mg/kg, dihydrate",about 1.46
same,Intensity (maximal effect of amlodipine nicotinate to maximal effect of amlodipine besylate),[2]; [5],1.46
same,Intensity (maximal effect of amlodipine nicotinate to maximal effect of amlodipine besylate),[2]; 3 mg/kg,1.07
same,Maximal anti-hypertensive effect (change of systolic blood pressure),"[2]; 3 mg/kg, listed as Nicotinate salt, dihydrate",−26.8 ± 3.22%
same,Intensity (maximal effect of amlodipine nicotinate to maximal effect of amlodipine besylate),[2]; 10 mg/kg,1.06
same,Maximal anti-hypertensive effect (change of systolic blood pressure),"[2]; 10 mg/kg, listed as Nicotinate salt, dihydrate",−40.9 ± 2.08%
same,ED20 (amount necessary for 20% decrease in the blood pressure),[2]; dihydrate,2.19 ± 0.57 mg/kg
same,Intensity (reverse ratio of ED20 values relative to amlodipine besylate),[2]; dihydrate,1.13
same,ED20 (amount necessary for 20% decrease in the blood pressure),[2]; [6],2.19 ± 0.57 mg/kg
same,Intensity (reverse ratio of ED20 values relative to amlodipine besylate),[2]; [6],about 1.13
same,pH at saturation,[3]; dihydrate,7.2
same,solubility,[3]; dihydrate,6800 µg/mL
same,Stickiness: Amlodipine(μg)/cm^2 (tablet),[4]; dihydrate,0.44 μg/cm^2 (tablet)
same,Stickiness relative to besylate,[4]; dihydrate,36.7%
